Results as given in US9879050B2, “Substituted urea depsipeptide analogs as activators of the CLPP endopeptidase” (priority 2013, dated 2018).
Values after ≈ are worked out from the molar mass of the structure shown. Where two headings read alike, the source gives them in different places. Where a SMILES comes first, the peptide text is derived from it. Bridges are numbered along the chain shown (N, C = ends). [ ]: non-standard residue; d: D form. The star is where a group is joined. Phe(3,5-F2) = N[C@@H](Cc1cc(F)cc(F)c1)C(=O)O; Heptenoyl(2E) = CCCC/C=C/C(=O)*; aThr = C[C@H](O)[C@H](N)C(=O)O; Pip = O=C(O)[C@@H]1CCCCN1

Tests used:
B. subtilis ATCC 23857 = assay: Minimal inhibitory concentration, microbroth dilution; format: cell-based; conditions: Bacillus subtilis, ATCC23857, read-out: Minimal Inhibitory Concentration B. subtilis ATCC 23857
Summary of the method: (§1)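 Susceptibility testing used the CLSI dilution standard, with bacteria at ~10^5 cfu/mL exposed to a two-fold compound series beginning at 200 μM final. The endpoint is the lowest concentration showing no growth after overnight incubation (37 °C, aerobic).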

S. aureus ATCC 29213 = assay: as above; format: cell-based; conditions: Staphylococcus aureus, ATCC29213, read-out: Minimal Inhibitory Concentration S. aureus ATCC 29213
Summary of the method: as §1

Sa-ClpP = target: T1, Sa-ClpP (Staphylococcus aureus, UniProt Q2G036); assay: ADEP displacement fluorescence polarization assay; format: binding, S. aureus
T1 construct: made in house; host or cells: E. coli BL21 (DE3)
T1 sequence (Q2G036 whole entry): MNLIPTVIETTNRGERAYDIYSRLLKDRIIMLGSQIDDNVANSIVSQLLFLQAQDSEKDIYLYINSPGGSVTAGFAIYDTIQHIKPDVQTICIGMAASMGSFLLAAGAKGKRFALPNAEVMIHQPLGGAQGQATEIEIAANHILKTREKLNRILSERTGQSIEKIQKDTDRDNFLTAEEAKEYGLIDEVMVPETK
Summary of the method: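 Displacement of TAMRA-labelled ADEP 2591 probe (50 nM) from 1 μM Sa-ClpP, pre-equilibrated 1 h in Tris·HCl pH 8.0 with 2% DMSO, then 120 min at room temperature with compound, triplicate. Polarization (mP) read ex 530/em 579 nm, normalised to 20 μM ADEP 2378 and DMSO controls; four-parameter fit.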

[1] = Cytotoxicity assay, CellTiter-Glo cell viability; format: cell-based; conditions: African green monkey
Summary of the method: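 Vero cells seeded overnight at 37 °C in DMEM with 10% FBS, then exposed to serial dilutions of compound for 72 h. Viability read by CellTiter-Glo luminescence; IC50 from duplicates, given as the range of two independent experiments.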

S. aureus ClpP (Sa-ClpP) = target: T2, S. aureus ClpP (Sa-ClpP) (Staphylococcus aureus, UniProt Q2G036); assay: ClpP activation, casein-BODIPY digestion assay (first described method); format: biochemical
T2 construct: made in house; host or cells: E. coli BL21 (DE3)
T2 sequence (Q2G036 whole entry): as above
Summary of the method: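 Purified E. coli-expressed Sa-ClpP (10 μM) with 25 μg/ml BODIPY FL casein and 0-100 μM compound in 50 mM Tris pH 8, 200 mM KCl, 1 mM TCEP at 37° C. Fluorescence (ex 485/em 528 nm) read every 5 min over 45 min; velocities fit to dose-response for EC50 of 50% activation, in triplicate.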

[2] = 1 μM Sa-ClpP, 50 nM FP probe ADEP 2591, read-out: ADEP Displacement IC50
[3] = Vero cells, 72 hours, read-out: Cytotoxicity IC50
[4] = first described ClpP activation assay (**), 10 μM saClpP, 25 μg/ml BODIPY FL casein, 37° C., read-out: ClpP Activation EC50

Structure (SMILES)	MIC (B. subtilis ATCC 23857) [µM]	MIC (S. aureus ATCC 29213) [µM]	IC50 (Sa-ClpP; [2]) [µM]	IC50 at 72 h [1, 3] [µM]	EC50 (S. aureus ClpP (Sa-ClpP); [4]) [µM]	IC50 (Sa-ClpP) [µM]	IC50 at 72 h [1] [µM]	EC50 (S. aureus ClpP (Sa-ClpP)) [µM]
Cc1ccc(NC(=O)N[C@@H](Cc2ccccc2)C(=O)N[C@H]2COC(=O)[C@@H]3C[C@@H](C)CN3C(=O)[C@H](C)NC(=O)[C@@H]3CCCCN3C(=O)[C@@H]3CCCN3C2=O)cc1 [Compound 23, (S)—N-((2R,6S,8aS,14aS,20S,23aS)-2,6-Dimethyl-5,8,14,19,23-Pentaoxooctadecahydro-1H,5H,14H,19H-Pyrido[2,1-I]Dipyrrolo[2,1-C:2′,1′-L][1]Oxa[4,7,10,13]Tetraazacyclohexadecin-20-Yl)-3-Phenyl-2-(3-(P-Tolyl)Ureido)Propanamide]	< 0.2	0.4 (≈ 0.303 µg/mL)	7.1 ± 0.3	74 ± 7.7	2.6 ± 0.4			
C[C@H]1C[C@H]2C(=O)O[C@@H](C)[C@H](NC(=O)[C@H](Cc3cc(F)cc(F)c3)NC(=O)Nc3ccc4c(c3)OCO4)C(=O)N3CCC[C@H]3C(=O)N3CCCC[C@H]3C(=O)N[C@@H](C)C(=O)N2C1 [Compound 20, (S)-2-(3-(Benzo[D][1,3]Dioxol-5-Yl)Ureido)-3-(3,5-Difluorophenyl)-N-((2R,6S,8aS,14aS,20S,21 S,23aS)-2,6,21-Trimethyl-5,8,14,19,23-Pentaoxooctadecahydro-1H,5H,14H,19H-Pyrido[2,1-I]Dipyrrolo[2,1-C:2′,1′-L][1]Oxa[4,7,10,13]Tetraazacyclohexadecin-20-Yl)Propanamide]						6 ± 0.3	52.8 ± 4.9	1.6 ± 0.3
C[C@@H]1C[C@H]2C(=O)OC[C@H](NC(=O)[C@H](Cc3ccccc3)NC(=O)Nc3ccc(N(C)C)cc3)C(=O)N3CCC[C@H]3C(=O)N3CCCC[C@H]3C(=O)N[C@@H](C)C(=O)N2C1 [Compound 5, (S)—N-((2R,6S,8aS,14aS,20S,23aS)-2,6-Dimethyl-5,8,14,19,23-Pentaoxooctadecahydro-1H,5H,14H,19H-Pyrido[2,1-1]Dipyrrolo[2,1-C:2′,1′-L][1]Oxa[4,7,10,13]Tetraazacyclohexadecin-20-Yl)-2-(3-(4-(Dimethylamino)Phenyl)Ureido)-3-Phenylpropanamide]	0.78 (≈ 0.614 µg/mL)	6.25 (≈ 4.92 µg/mL)	28 ± 2.3	91.3 ± 12.7	1.3 ± 0.2			
C[C@H]1C[C@H]2C(=O)O[C@@H](C)[C@H](NC(=O)[C@H](Cc3cc(F)cc(F)c3)NC(=O)Nc3ccc(C(F)(F)F)cc3)C(=O)N3CCC[C@H]3C(=O)N3CCCC[C@H]3C(=O)N[C@@H](C)C(=O)N2C1 [Compound 19, (S)-3-(3,5-Difluorophenyl)-2-(3-(4-(Trifluoromethyl)Phenyl)Ureido)-N-((2R,6S,8aS,14aS,20S,21S,23aS)-2,6,21-Trimethyl-5,8,14,19,23-Pentaoxooctadecahydro-1H,5H,14H,19H-Pyrido[2,1-I]Dipyrrolo[2,1-C:2′,1′-L][1]Oxa[4,7,10,13]Tetraazacyclohexadecin-20-Yl)Propanamide]	< 0.1	0.1 (≈ 0.0862 µg/mL)	5.7 ± 0.3	36.8 ± 4.1	3.2 ± 0.1			
C[C@@H]1NC(=O)[C@@H]2CCCCN2C(=O)[C@@H]2CCCN2C(=O)[C@@H](NC(=O)[C@H](Cc2cc(F)cc(F)c2)NC(=O)Nc2ccc3c(c2)OCO3)[C@H](C)OC(=O)[C@@H]2CCCN2C1=O [Compound 17, (S)-2-(3-(Benzo[D][1,3]Dioxol-5-Yl)Ureido)-3-(3,5-Difluorophenyl)-N-((6S,8aS,14aS,20S,21 S,23aS)-6,21-Dimethyl-5,8,14,19,23-Pentaoxooctadecahydro-1H,5H,14H,19H-Pyrido[2,1-I]Dipyrrolo[2,1-C:2′,1′-L][1]Oxa[4,7,10,13]Tetraazacyclohexadecin-20-Yl)Propanamide]						7.2 ± 0.4	46.5 ± 9.8	3.6 ± 0.6
Cc1ccc(NC(=O)N[C@@H](Cc2cc(F)cc(F)c2)C(=O)N[C@@H]2C(=O)N3CCC[C@H]3C(=O)N3CCCC[C@H]3C(=O)N[C@@H](C)C(=O)N3C[C@@H](C)C[C@H]3C(=O)O[C@H]2C)cc1 [Compound 18, (S)-3-(3,5-Difluorophenyl)-2-(3-(P-Tolyl)Ureido)-N-((2R,6S,8aS,14aS,20S,21S,23aS)-2,6,21-Trimethyl-5,8,14,19,23-Pentaoxooctadecahydro-1H,5H,14H,19H-Pyrido[2,1-I]Dipyrrolo[2,1-C:2′,1′-L][1]Oxa[4,7,10,13]Tetraazacyclohexadecin-20-Yl)Propanamide]	< 0.1	0.1 (≈ 0.0808 µg/mL)	5.6 ± 0.3	26.7 ± 3.6	7 ± 0.9			
COc1ccc(NC(=O)N[C@@H](Cc2ccccc2)C(=O)N[C@H]2COC(=O)[C@@H]3C[C@@H](C)CN3C(=O)[C@H](C)NC(=O)[C@@H]3CCCCN3C(=O)[C@@H]3CCCN3C2=O)cc1 [Compound 6, (S)—N-((2R,6S,8aS,14aS,20S,23aS)-2,6-Dimethyl-5,8,14,19,23-Pentaoxooctadecahydro-1H,5H,14H,19H-Pyrido[2,1-1]Dipyrrolo[2,1-C:2′,1′-L][1]Oxa[4,7,10,13]Tetraazacyclohexadecin-20-Yl)-2-(3-(4-Methoxyphenyl)Ureido)-3-Phenylpropanamide]	1.56 (≈ 1.21 µg/mL)	3.13 (≈ 2.42 µg/mL)	27.7 ± 1.5	> 100	2 ± 0.1			
C[C@@H]1C[C@H]2C(=O)OC[C@H](NC(=O)[C@H](Cc3ccccc3)NC(=O)Nc3ccccc3Cl)C(=O)N3CCC[C@H]3C(=O)N3CCCC[C@H]3C(=O)N[C@@H](C)C(=O)N2C1 [Compound 7, (S)-2-(3-(2-Chlorophenyl)Ureido)-N-((2R,6S,8aS,14aS,20S,23aS)-2,6-Dimethyl-5,8,14,19,23-Pentaoxooctadecahydro-1H,5H,14H,19H-Pyrido[2,1-I]Dipyrrolo[2,1-C:2′,1′-L][1]Oxa[4,7,10,13]Tetraazacyclohexadecin-20-Yl)-3-Phenylpropanamide]	6.25 (≈ 4.86 µg/mL)	12.5 (≈ 9.73 µg/mL)	130 ± 11.3	> 100	34.6 ± 6.8			
C[C@@H]1C[C@H]2C(=O)OC[C@H](NC(=O)[C@H](Cc3ccccc3)NC(=O)Nc3cccc(Cl)c3)C(=O)N3CCC[C@H]3C(=O)N3CCCC[C@H]3C(=O)N[C@@H](C)C(=O)N2C1 [Compound 9, (S)-2-(3-(3-Chlorophenyl)Ureido)-N-((2R,6S,8aS,14aS,20S,23aS)-2,6-Dimethyl-5,8,14,19,23-Pentaoxooctadecahydro-1H,5H,14H,19H-Pyrido[2,1-I]Dipyrrolo[2,1-C:2′,1′-L][1]Oxa[4,7,10,13]Tetraazacyclohexadecin-20-Yl)-3-Phenylpropanamide]	1.56 (≈ 1.21 µg/mL)	3.13 (≈ 2.44 µg/mL)	25.4 ± 2.2	89 ± 5	1 ± 0.1			
CCCC/C=C/C(=O)N[C@@H](Cc1cc(F)cc(F)c1)C(=O)N[C@@H]1C(=O)N2CCC[C@H]2C(=O)N2CCCC[C@H]2C(=O)N[C@@H](C)C(=O)N2CCC[C@H]2C(=O)O[C@H]1C [ADEP 2719, reference compound] ({Heptenoyl(2E)}-[Phe(3,5-F2)][aThr]P[Pip]AP; ester 2-C)			6.2 ± 0.3	37.7 ± 3.4				
Cc1ccc(NC(=O)N[C@@H](Cc2cc(F)cc(F)c2)C(=O)N[C@@H]2C(=O)N3CCC[C@H]3C(=O)N3CCCC[C@H]3C(=O)N[C@@H](C)C(=O)N3CCC[C@H]3C(=O)O[C@H]2C)cc1 [Compound 15, (S)-3-(3,5-Difluorophenyl)-N-((6S,8aS,14aS,20S,21 S,23aS)-6,21-Dimethyl-5,8,14,19,23-Pentaoxooctadecahydro-1H,5H,14H,19H-Pyrido[2,1-I]Dipyrrolo[2,1-C:2′,1′-L][1]Oxa[4,7,10,13]Tetraazacyclohexadecin-20-Yl)-2-(3-(P-Tolyl)Ureido)Propanamide]	< 0.1	0.6 (≈ 0.476 µg/mL)	8.4 ± 0.2	39.7 ± 6.6	4.6 ± 0.9			
